PubChem BioAssay (NCI)
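Results reflect a 48-hour exposure of cells in 96-well plates to compound at five concentrations. TGI is the concentration that stops growth completely.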

Assays:
Assay in all cases: DTP human tumour cell line panel, 48 h
M14 melanoma = system: M14 melanoma
LXFL 529 NSCLC = system: LXFL 529 NSCLC
RXF 393 renal = system: RXF 393 renal
UO-31 renal = system: UO-31 renal
SNB-78 CNS = system: SNB-78 CNS
DLD-1 colon = system: DLD-1 colon
SW-620 colon = system: SW-620 colon
HOP-92 NSCLC = system: HOP-92 NSCLC
CCRF-CEM leukemia = system: CCRF-CEM leukemia
RPMI-8226 leukemia = system: RPMI-8226 leukemia
HCT-116 colon = system: HCT-116 colon
SNB-75 CNS = system: SNB-75 CNS
SR leukemia = system: SR leukemia
COLO 205 colon = system: COLO 205 colon
UACC-257 melanoma = system: UACC-257 melanoma
K-562 leukemia = system: K-562 leukemia
NCI-H522 lung = system: NCI-H522 lung
SK-MEL-2 melanoma = system: SK-MEL-2 melanoma
SK-OV-3 ovarian = system: SK-OV-3 ovarian
M19-MEL melanoma = system: M19-MEL melanoma
IGROV1 ovarian = system: IGROV1 ovarian
MOLT-4 leukemia = system: MOLT-4 leukemia
RXF-631 renal = system: RXF-631 renal
NCI-H226 lung = system: NCI-H226 lung
ACHN renal = system: ACHN renal
SK-MEL-5 melanoma = system: SK-MEL-5 melanoma
OVCAR-4 ovarian = system: OVCAR-4 ovarian
NCI-H23 lung = system: NCI-H23 lung
SK-MEL-28 melanoma = system: SK-MEL-28 melanoma
CAKI-1 renal = system: CAKI-1 renal
HL-60(TB) leukemia = system: HL-60(TB) leukemia
OVCAR-8 ovarian = system: OVCAR-8 ovarian
NCI-H460 lung = system: NCI-H460 lung
SF-539 CNS = system: SF-539 CNS
OVCAR-5 ovarian = system: OVCAR-5 ovarian
UACC-62 melanoma = system: UACC-62 melanoma
KM20L2 colon = system: KM20L2 colon
MALME-3M melanoma = system: MALME-3M melanoma
EKVX NSCLC = system: EKVX NSCLC
KM12 colon = system: KM12 colon
U251 CNS = system: U251 CNS
A549 NSCLC = system: A549 NSCLC
TK-10 renal = system: TK-10 renal
DMS 114 small cell lung = system: DMS 114 small cell lung
LOX IMVI melanoma = system: LOX IMVI melanoma
HCC-2998 colon = system: HCC-2998 colon
SNB-19 CNS = system: SNB-19 CNS
HOP-62 NSCLC = system: HOP-62 NSCLC
OVCAR-3 ovarian = system: OVCAR-3 ovarian
786-0 renal = system: 786-0 renal
SF-295 CNS = system: SF-295 CNS
HCT-15 colon = system: HCT-15 colon
A498 renal = system: A498 renal

Cc1cccc(C)c1NC(=O)CCCC(=O)C(C#N)c1ccccc1 (configuration not stated)
TGI (M14 melanoma): > 100 µM | TGI (LXFL 529 NSCLC): > 100 µM | TGI (RXF 393 renal): > 100 µM | TGI (UO-31 renal): > 100 µM | TGI (SNB-78 CNS): > 100 µM | TGI (DLD-1 colon): > 100 µM | TGI (SW-620 colon): > 100 µM | TGI (HOP-92 NSCLC): > 100 µM | TGI (CCRF-CEM leukemia): > 100 µM | TGI (RPMI-8226 leukemia): > 100 µM | TGI (HCT-116 colon): > 100 µM | TGI (SNB-75 CNS): > 100 µM | TGI (SR leukemia): > 100 µM | TGI (COLO 205 colon): > 100 µM | TGI (UACC-257 melanoma): > 100 µM | TGI (K-562 leukemia): > 100 µM | TGI (NCI-H522 lung): > 100 µM | TGI (SK-MEL-2 melanoma): > 100 µM | TGI (SK-OV-3 ovarian): > 100 µM | TGI (M19-MEL melanoma): > 100 µM | TGI (IGROV1 ovarian): > 100 µM | TGI (MOLT-4 leukemia): > 100 µM | TGI (RXF-631 renal): > 100 µM | TGI (NCI-H226 lung): > 100 µM | TGI (ACHN renal): > 100 µM | TGI (SK-MEL-5 melanoma): > 100 µM | TGI (OVCAR-4 ovarian): > 100 µM | TGI (NCI-H23 lung): > 100 µM | TGI (SK-MEL-28 melanoma): > 100 µM | TGI (CAKI-1 renal): > 100 µM | TGI (HL-60(TB) leukemia): > 100 µM

CC(C)c1ccc(Cc2ccc(C(C)C)c(NC(=O)C(=O)Cc3cnc4ccccc4n3)c2C(C)C)c(C(C)C)c1NC(=O)C(=O)Cc1cnc2ccccc2n1
TGI (OVCAR-8 ovarian): > 100 µM | TGI (M14 melanoma): > 100 µM | TGI (LXFL 529 NSCLC): > 100 µM | TGI (NCI-H460 lung): > 100 µM | TGI (UO-31 renal): > 100 µM | TGI (SNB-78 CNS): > 100 µM | TGI (DLD-1 colon): > 100 µM | TGI (SF-539 CNS): > 100 µM | TGI (OVCAR-5 ovarian): > 100 µM | TGI (UACC-62 melanoma): > 100 µM | TGI (SW-620 colon): > 100 µM | TGI (HOP-92 NSCLC): 91.8 µM | TGI (KM20L2 colon): > 100 µM | TGI (MALME-3M melanoma): > 100 µM | TGI (CCRF-CEM leukemia): > 100 µM | TGI (RPMI-8226 leukemia): > 100 µM | TGI (HCT-116 colon): > 100 µM | TGI (EKVX NSCLC): > 100 µM | TGI (KM12 colon): > 100 µM | TGI (COLO 205 colon): > 100 µM | TGI (UACC-257 melanoma): > 100 µM | TGI (U251 CNS): > 100 µM | TGI (K-562 leukemia): > 100 µM | TGI (A549 NSCLC): > 100 µM | TGI (TK-10 renal): > 100 µM | TGI (SK-MEL-2 melanoma): > 100 µM | TGI (DMS 114 small cell lung): > 100 µM | TGI (SK-OV-3 ovarian): > 100 µM | TGI (LOX IMVI melanoma): > 100 µM | TGI (M19-MEL melanoma): > 100 µM | TGI (IGROV1 ovarian): > 100 µM | TGI (HCC-2998 colon): > 100 µM | TGI (MOLT-4 leukemia): > 100 µM | TGI (RXF-631 renal): > 100 µM | TGI (SNB-19 CNS): > 100 µM | TGI (ACHN renal): > 100 µM | TGI (HOP-62 NSCLC): > 100 µM | TGI (OVCAR-3 ovarian): > 100 µM | TGI (SK-MEL-5 melanoma): > 100 µM | TGI (786-0 renal): > 100 µM | TGI (OVCAR-4 ovarian): > 100 µM | TGI (SF-295 CNS): > 100 µM | TGI (HCT-15 colon): > 100 µM | TGI (CAKI-1 renal): > 100 µM | TGI (HL-60(TB) leukemia): > 100 µM | TGI (A498 renal): > 100 µM
